According to patent publication US6251912A, “Substituted quinazoline derivatives” (American Cyanamid Company, priority 1998, dated 2001):
≈ marks a conversion by molar mass, not a printed value. Where two headings read alike, the source gives them in different places.

Columns and labels:
MB435 = assay: Inhibition of cancer cell growth as measured by cell number, MB435; assay type: cell-based; settings: Homo sapiens, read-out: IC50, inhibition of cancer cell growth
Procedure: (§1) After 48 hours exposure to test compounds, cells were fixed with trichloroacetic acid, and stained with Sulforhodamine B. After washing with trichloroacetic acid, bound dye was solubilized in 10 mM Tris base and optical density was determined using plate reader. Under conditions of the assay the optical density is proportional to the number of cells in the well. […] The test procedure is described in details by Philip Skehan et. al, J.Natl. Canc.

A2780S = assay: Inhibition of cancer cell growth as measured by cell number, A2780S; assay type: cell-based; settings: Homo sapiens, read-out: IC50, inhibition of cancer cell growth
Procedure: as §1

A2780DDP = assay: Inhibition of cancer cell growth as measured by cell number, A2780DDP; assay type: cell-based; settings: Homo sapiens, read-out: IC50, inhibition of cancer cell growth
Procedure: as §1

MCF7 = assay: Inhibition of cancer cell growth as measured by cell number, MCF7; assay type: cell-based; settings: Homo sapiens, read-out: IC50, inhibition of cancer cell growth
Procedure: as §1

SW620 = assay: Inhibition of cancer cell growth as measured by cell number, SW620; assay type: cell-based; settings: Homo sapiens, read-out: IC50, inhibition of cancer cell growth
Procedure: as §1

LOX = assay: Inhibition of cancer cell growth as measured by cell number, LOX; assay type: cell-based; settings: Homo sapiens, read-out: IC50, inhibition of cancer cell growth
Procedure: as §1

A431 = assay: Inhibition of cancer cell growth as measured by cell number, A431; assay type: cell-based; settings: Homo sapiens, read-out: IC50, inhibition of cancer cell growth
Procedure: as §1

SKBR3 = assay: Inhibition of cancer cell growth as measured by cell number, SKBR3; assay type: cell-based; settings: Homo sapiens, read-out: IC50, inhibition of cancer cell growth
Procedure: as §1

[1] = test system: human epidermoid tumors (A431); assay type: in vivo, BALB/c nu/nu female mice; settings: for % T/C / Relative Tumor Growth (RTG): days 1 through 10; for inhibition of tumor growth in vivo: in words
Procedure: BALB/c nu/nu female mice (Charles River, Wilmington, Mass.) were used in the in vivo standard pharmacological test procedures. […] A unit of 5×10^6 cells were injected SC into mice. When tumors attained a mass of between 100 and 150 mg, the mice were randomized into treatment groups (day zero). Mice were treated IP or PO once a day either on days 1, 5, and 9 or on days 1 through 10 post staging with doses of either 80, 40 or 20, or 10 mg/kg/dose of the compound to be evaluated in 0.2% Klucel. Control animals received no drug. […] […] The %T/C (Tumor/Control) is determined by dividing the relative tumor growth of the treated group by the relative tumor growth of the placebo group and multiplying by 100.

`CC(C)(C)[Si](C)(C)OCC#CC(=O)Nc1ccc2ncnc(Nc3cccc(Br)c3)c2c1` [Example 15, 4-(tert-Butyl-dimethyl-silanyloxy)-but-2-ynoic acid [4-(3-bromo-phenylamino)-quinazolin-6-yl]-amide] gave an IC50 (MB435; 48 h) of 0.42 µg/mL (≈ 0.821 µM), an IC50 (A2780S; 48 h) of 0.02 µg/mL (≈ 0.0391 µM) and an IC50 (A2780DDP; 48 h) of 0.05 µg/mL (≈ 0.0978 µM). For the same molecule, the IC50 (MCF7; MCF7, 48 h) was 0.45 µg/mL (≈ 0.88 µM), the IC50 (SW620; SW-620, 48 h) was 0.02 µg/mL (≈ 0.0391 µM) and the IC50 (LOX; 48 h) was 0.03 µg/mL (≈ 0.0587 µM). It also gave an IC50 (A431; A-431, 48 h) of 0.04 µg/mL (≈ 0.0782 µM) and an IC50 (SKBR3; SK-BR-3, 48 h) of 0.38 µg/mL (≈ 0.743 µM).

`CN(C)CC#CC(=O)Nc1ccc2ncnc(Nc3cccc(Br)c3)c2c1` [Example 21, 4-Dimethylamino-but-2-ynoic acid [4-(3-bromo-phenylamino)-quinazolin-6-yl]-amide] was tested, and the “% T/C” value ([1]; 10 mg/kg/dose PO, Day 16) was 56%, the “% T/C” value ([1]; 10 mg/kg/dose PO, Day 21) was 42% and the “% T/C” value ([1]; 10 mg/kg/dose PO, Day 28) was 42%. The “% T/C” value ([1]; 20 mg/kg/dose PO, Day 7) was 100%, the “% T/C” value ([1]; 20 mg/kg/dose PO, Day 16) was 82% and the “% T/C” value ([1]; 20 mg/kg/dose PO, Day 28) was 72%. For the same molecule, the “% T/C” value ([1]; 40 mg/kg/dose PO, Day 7) was 79%, the “% T/C” value ([1]; 40 mg/kg/dose PO, Day 16) was 84% and the “inhibition of tumor growth in vivo” value [1] was “effective inhibitor of tumor growth in vivo”.

`CCN(CC)CC#CC(=O)Nc1ccc2ncnc(Nc3cccc(Br)c3)c2c1` [Example 25, 4-Diethylamino-but-2-ynoic acid[4-(3-bromo-phenylamino)-quinazolin-6-yl]-amide] was tested, and the “% T/C” value ([1]; 40 PO, Day 7 (TABLE 5)) was 71%, the “Relative Tumor Growth (RTG)” value ([1]; 40 PO, Day 7, control 2.76 (TABLE 5)) was 1.96 and the “% T/C” value ([1]; 40 PO, Day 14 (TABLE 5)) was 33%. The “Relative Tumor Growth (RTG)” value ([1]; 40 PO, Day 14, control 7.07 (TABLE 5)) was 2.33, the “% T/C” value ([1]; 40 PO, Day 21 (TABLE 5)) was 40% and the “Relative Tumor Growth (RTG)” value ([1]; 40 PO, Day 21, control 11.75 (TABLE 5)) was 4.68. The “% T/C” value ([1]; 40 PO, Day 28 (TABLE 5)) was 52%, the “Relative Tumor Growth (RTG)” value ([1]; 40 PO, Day 28, control 17.13 (TABLE 5)) was 8.84 and the “inhibition of tumor growth in vivo” value [1] was “effective inhibitor of tumor growth in vivo”. The “S/T (No. Survivors/No. Treated)” value ([1]; mouse, in vivo, po) was 4/5.

Work on `C=C(CN1CCOCC1)C(=O)Nc1ccc2ncnc(Nc3cccc(Br)c3)c2c1` [Example 63, N-[4-(3-Bromo-phenylamino)-quinazolin-6-yl]-2-morpholin-4-ylmethyl-acrylamide] yielded an IC50 (MB435; 48 h) of 4.5 µg/mL (≈ 9.61 µM), an IC50 (A2780S; 48 h) of 0.8 µg/mL (≈ 1.71 µM) and an IC50 (A2780DDP; 48 h) of 4 µg/mL (≈ 8.54 µM). For the same molecule, the IC50 (MCF7; MCF7, 48 h) was 17 µg/mL (≈ 36.3 µM), the IC50 (SW620; SW-620, 48 h) was 5.5 µg/mL (≈ 11.7 µM) and the IC50 (LOX; 48 h) was 3.9 µg/mL (≈ 8.33 µM). For the same molecule, the IC50 (A431; A-431, 48 h) was 0.6 µg/mL (≈ 1.28 µM) and the IC50 (SKBR3; SK-BR-3, 48 h) was 10 µg/mL (≈ 21.4 µM).

In the case of `CN(C)CC=CC(=O)Nc1ccc2ncnc(Nc3cccc(Br)c3)c2c1` [Example 66, 4-Dimethylamino-but-2-enoic acid [4-(3-bromo-phenylamino)-quinazolin-6-yl]-amide], the IC50 (MB435; 48 h) was 5.4 µg/mL (≈ 12.7 µM), the IC50 (A2780S; 48 h) was 3.9 µg/mL (≈ 9.15 µM) and the IC50 (A2780DDP; 48 h) was 5.1 µg/mL (≈ 12 µM). For the same molecule, the IC50 (MCF7; MCF7, 48 h) was 7.6 µg/mL (≈ 17.8 µM), the IC50 (SW620; SW-620, 48 h) was 5.1 µg/mL (≈ 12 µM) and the IC50 (LOX; 48 h) was 4.9 µg/mL (≈ 11.5 µM). For the same molecule, the IC50 (A431; A-431, 48 h) was 0.007 µg/mL (≈ 0.0164 µM) and the IC50 (SKBR3; SK-BR-3, 48 h) was under 0.01 µg/mL.

With `CCN(CC)CC=CC(=O)Nc1ccc2ncnc(Nc3cccc(Br)c3)c2c1` [Example 67, 4-Diethylamino-but-2-enoic acid [4-(3-bromo-phenylamino)-quinazolin-6-yl]-amide] the IC50 (MB435; MB435, 48 hours exposure) was 45 µg/mL (≈ 99 µM), the IC50 (A2780S; 48 hours exposure) was 22 µg/mL (≈ 48.4 µM) and the IC50 (A2780DDP; A2780DDP, 48 hours exposure) was 43 µg/mL (≈ 94.6 µM). For the same molecule, the IC50 (MCF7; MCF7, 48 hours exposure) was 59 µg/mL (≈ 130 µM), the IC50 (SW620; SW-620, SW620, 48 hours exposure) was 52 µg/mL (≈ 114 µM) and the IC50 (LOX; 48 hours exposure) was 46 µg/mL (≈ 101 µM). The IC50 (A431; A-431, A431, 48 hours exposure) was 0.01 µg/mL (≈ 0.022 µM) and the IC50 (SKBR3; SK-BR-3, SKBR3, 48 hours exposure) was under 0.01 µg/mL.
